Test results as given in article PMC3334918, “Mutagenesis and Functional Studies with Succinate Dehydrogenase Inhibitors in the Wheat Pathogen Mycosphaerella graminicola” (PLoS ONE, 2012).

What was measured:
[1] = tested on: M. graminicola WT (IPO323); assay: microbe, parasite or virus in culture; format: cell-based, Mycosphaerella graminicola; conditions: Zymoseptoria tritici; WT (IPO323), liquid culture growth, ±S.E. (triplicate); read-out: IC50 in vivo
Protocol: (§1) To explore the sensitivity profiles conferred by amino acid substitutions at the cellular and mitochondrial level, we determined sensitivity towards 4 different compounds for 26 of the identified substitution types both in vivo using liquid culture growth (AE media) and in vitro using purified mitochondria and the succinate: Q0/DCPIP activity test (Table 3). […] Resistance factors (RF) were determined as the ratio IC50mutant/IC50WT. […] Qp site mutations are well known to influence SDH enzyme activity and stability upon catalysis, [13], [38], [41].
(§2) Conidial cells were collected from 4 day old V8 agar plates (cultured at 18°C in the dark) using liquid AE and a cell spreader. Cell density was determined and cells re-suspended to a concentration of 5×10^5 cells ml^−1 in AE media. Sterile 96 wells microtiter plates with lids (Costar) were inoculated with 198 µl of this cell suspension (10^5 cells per well) and 2 µl of inhibitor (100× in DMSO). Final inhibitor concentrations were between 0.95 nM and 1 mM with uniform 4× dilution factor steps (11 inhibitor concentrations+1 DMSO control). Plates were incubated for 6 days at 19°C in the dark before cells were re-suspended and measured for growth (OD600 nm). IC50 values were determined by non linear curve fitting on the basis of measured OD values versus log inhibitor concentrations (GraphPad Prism 5.0 software).

[2] = target: succinate dehydrogenase (SDH), WT (IPO323) (Zymoseptoria tritici (Mycosphaerella graminicola), UniProt F9X9V6+F9XG45+F9XH52); assay: in vitro succinate: Q0/DCPIP activity test, purified mitochondria; format: biochemical; conditions: read-out: IC50 in vitro, ±S.E. (triplicate)
Sequence of succinate dehydrogenase (SDH), WT (IPO323) (F9XG45 entry or part of it): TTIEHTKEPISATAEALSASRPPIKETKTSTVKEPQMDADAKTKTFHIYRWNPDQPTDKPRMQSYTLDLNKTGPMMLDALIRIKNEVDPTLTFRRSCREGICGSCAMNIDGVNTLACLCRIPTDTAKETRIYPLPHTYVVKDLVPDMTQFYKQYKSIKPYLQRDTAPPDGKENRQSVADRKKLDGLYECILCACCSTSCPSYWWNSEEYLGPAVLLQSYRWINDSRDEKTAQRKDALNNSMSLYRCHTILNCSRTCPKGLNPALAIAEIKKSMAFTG
Sequence of succinate dehydrogenase (SDH), WT (IPO323) (F9X9V6 entry or part of it): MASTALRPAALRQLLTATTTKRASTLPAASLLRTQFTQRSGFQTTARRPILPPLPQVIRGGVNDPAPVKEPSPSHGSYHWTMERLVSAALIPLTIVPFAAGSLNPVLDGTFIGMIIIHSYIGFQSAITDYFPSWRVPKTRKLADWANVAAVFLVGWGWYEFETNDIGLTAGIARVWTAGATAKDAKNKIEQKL
Sequence of succinate dehydrogenase (SDH), WT (IPO323) (F9XH52 entry or part of it): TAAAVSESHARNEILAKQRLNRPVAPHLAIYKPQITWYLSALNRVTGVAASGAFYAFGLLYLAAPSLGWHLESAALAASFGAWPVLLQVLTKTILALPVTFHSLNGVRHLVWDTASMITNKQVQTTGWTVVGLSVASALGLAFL
Protocol: as §1
Strains were grown in 1 liter TSM40 units. Cultures were inoculated at 0.05 OD600 nm and grown on a reciprocal shaker (110 rpm, 22°C) for 5 days. Cells were harvested by vacuum filtration and disrupted in liquid nitrogen using a mortar and pestle. Resultant powder was re-suspended to 10% w/v in mitochondrial extraction buffer (10 mM KHPO4 pH7.2; 10 mM KCl, 10 mM MgCl2, 0.5 M sucrose, 0.2 mM EDTA, 2 mM PMSF). Extract was clarified by centrifugation (5,000 g, 4°C for 10 minutes, 2 times), intact mitochondria were then pelleted at 10,000 g for 20 minutes at 4°C. […] This volume was transferred to conical 1.5 ml tubes and re-centrifuged, 10,000 g for 10 minutes at 4°C. […] Mitochondrial suspensions were brought to a final concentration of 10 mg ml^−1 in extraction buffer and stored at −80°C until used.
Mitochondrial suspensions were incubated at 30°C for 30 minutes in extraction buffer supplemented with 10 mM succinate prior to enzymatic measurements.
A reaction plate was equilibrated for 10 minutes at 30°C before starting the reaction. DCPIP reduction was conducted at 30°C and monitored at 595 nm using a HTS7000 microtiterplate reader (Perkin Elmer). For calculations a molecular extinction coefficient of ε = 17 mM^−1 cm^−1 was used.
Inhibitor concentrations ranged between 1 mM and 0.95 nM with uniform 4× dilution factor steps (11 inhibitor concentrations+DMSO control). 96 wells plates were pre equilibrated at reaction temperature (30°C) for 10 minutes before the reactions were started by the addition of 5 µl preactivated M. graminicola mitochondrial suspension. Calculated absorbance slopes (OD/hour) were used for IC50 calculations using Graphpad Prism 5.0 software non linear curve fitting against log inhibitor concentrations.

[3] = examination of supplemented AE agar plates for precipitate; format: physicochemical; conditions: AE agar plates supplemented with 150 µM (5×MSC), developed over time
[4] = tested on: M. graminicola strain Cbx28 (SDHB_H267Y); assay: in vivo sensitivity, liquid culture growth (AE media); format: cell-based, Mycosphaerella graminicola; conditions: M. graminicola SDHB_H267Y; compound A: data not shown
Protocol: as §1, §2

[5] = tested on: wild type IPO323 M. graminicola strain; format: cell-based, Mycosphaerella graminicola; conditions: minimal concentration to fully inhibit growth of WT IPO323, AE agar, 10^7 cells, 2 weeks at 20°C in the dark
Text: (§3) Selection plates were produced after adding 1% of a 100× DMSO solution of the active ingredients to pre-melted AE-agar.

[6] = tested on: M. graminicola isolate IPO323; assay: UV mutagenesis and selection of resistant colonies on carboxamide amended AE agar; format: cell-based, Mycosphaerella graminicola
Protocol: as §3
Cells were harvested from 4 days old V8 agar plates and conidial cells were suspended in liquid AE. 10^7 cells were spread onto carboxamide amended AE agar plates and mutagenized using UV Stratalinker 2400 (Stratagene) with 75 mJ cm^−2 or 50 mJ cm^−2. […] Selection plates were incubated in the dark at 20°C for 14 days. Visible colonies were picked from the primary selection plate and re-grown on fresh selection media for 2 additional weeks under the same conditions.

Structure (SMILES): O=C(Nc1ccccc1-c1ccc(Cl)cc1)c1cccnc1Cl [Boscalid]
- IC50 [1]: 0.455 ± 0.047 µM
- IC50 [2]: 0.06 ± 0.0018 µM
- precipitation in the media [3]: white precipitate

Structure (SMILES): CC1=C(C(=O)Nc2ccccc2)SCCO1 [Carboxin]
- IC50 [1]: 6.47 ± 1.08 µM
- IC50 [2]: 1.16 ± 0.102 µM

Structure (SMILES): O=C(NCCc1ncc(C(F)(F)F)cc1Cl)c1ccccc1C(F)(F)F [Fluopyram]
- sensitivity / control of the SDHB_H267Y mutant compared to the WT [4]: hypersensitivity
- IC50 [1]: 0.584 ± 0.1 µM
- IC50 [2]: 0.044 ± 0.0022 µM

Structure (SMILES): CC(C)C1C2CCC1c1c(NC(=O)c3cn(C)cc3C(F)(F)F)cccc12 (centres unmarked) [compound A]
- Minimal selective concentration (MSC) [5]: compound A 100 µM (MSC)
- sensitivity / control of the SDHB_H267Y mutant compared to the WT [4]: better control
- Frequency (of resistance development) ([6]; selection at MSC, UV treatment 50 mJ cm^−2): 1.4E-07
- Frequency (of resistance development) ([6]; selection at MSC, UV treatment 75 mJ cm^−2): 2.1E-07
- Frequency (of resistance development) ([6]; selection at […] MSC, UV treatment 50 mJ cm^−2): 2.1E-07
- Frequency (of resistance development) ([6]; selection at […] MSC, UV treatment 75 mJ cm^−2): 1.9E-07
